Results reported in US4595700A, “Thiol based collagenase inhibitors” (G. D. Searle & Co., priority 1985, dated 1986).
Several values for one entry are separate records, joined by “and”; a condition that tells them apart may be missing. Equal values may be shown once.

Molecular target: T1, Human Rheumatoid Synovial collagenase (Homo sapiens, UniProt P03956)
T1 construct: from tissue; host or cells: rheumatoid synovium (tissue or synovial cell culture not distinguished)
T1 sequence (P03956 100-469): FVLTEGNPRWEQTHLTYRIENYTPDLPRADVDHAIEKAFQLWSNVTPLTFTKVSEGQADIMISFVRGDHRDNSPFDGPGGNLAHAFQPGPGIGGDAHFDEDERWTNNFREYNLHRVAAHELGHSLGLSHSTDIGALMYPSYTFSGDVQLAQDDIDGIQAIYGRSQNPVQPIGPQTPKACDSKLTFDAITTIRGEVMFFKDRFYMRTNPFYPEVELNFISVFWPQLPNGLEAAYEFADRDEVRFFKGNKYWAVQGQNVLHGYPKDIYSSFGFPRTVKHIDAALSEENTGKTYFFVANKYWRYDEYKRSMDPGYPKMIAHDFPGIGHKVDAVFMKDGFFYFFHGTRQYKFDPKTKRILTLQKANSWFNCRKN
Test: inhibition of collagenase (acetyl 14C collagen digestion, Cawston and Barrett)
Format: biochemical
Settings: Table 2; 37° C., 16 hours, native acetyl 14C collagen, pH 7.6; read-out: IC50 (μM) Human Rheumatoid Synovial collagenase
Description: This was determined following the procedure of Cawston and Barrett, Anal. Biochem., 99, 340-345 (1979) whereby the 1 mM of the inhibitor being tested or dilutions thereof are incubated at 37° C. for 16 hours with native collagen and collagenase (buffered with Tris HCl--CaCl2; pH 7.6). The collagen is acetyl ^14 C collagen. The samples are centrifuged to sediment undigested collagen and an aliquot of the radiactive supernatant removed for assay on a scintillation counter as a measure of hydrolysis. The collagenase activity in the presence of 1 mM inhibitor, or a dilution thereof, is compared to activity in a control devoid of inhibitor and the results reported as that inhibitor concentration effecting 50% inhibition of the collagenase.

IC50	Structure (SMILES)
19 µM	CNC(=O)[C@H](Cc1ccc(OC)cc1)NC(=O)C(CC(C)C)C(C)S (single isomer, unassigned) [Example 1 Isomer A1, N-[2-(1-Mercaptoethyl)-4-methylpentanoyl]-O-methyl-L-tyrosine N-Methylamide]
13 µM	CNC(=O)[C@H](Cc1ccc(OC)cc1)NC(=O)C(CC(C)C)C(C)S (single isomer, unassigned) [Example 1 Isomer A2, N-[2-(1-Mercaptoethyl)-4-methylpentanoyl]-O-methyl-L-tyrosine N-Methylamide]
0.22 µM	CNC(=O)[C@H](Cc1ccc(OC)cc1)NC(=O)C(CC(C)C)C(C)S (single isomer, unassigned) [Example 1 Isomer B1, N-[2-(1-Mercaptoethyl)-4-methylpentanoyl]-O-methyl-L-tyrosine N-Methylamide]
1.5 µM	CNC(=O)[C@H](Cc1ccc(OC)cc1)NC(=O)C(CC(C)C)C(C)S (single isomer, unassigned) [Example 1 Isomer B2, N-[2-(1-Mercaptoethyl)-4-methylpentanoyl]-O-methyl-L-tyrosine N-Methylamide]
0.27 µM	CNC(=O)[C@H](Cc1ccc(OC)cc1)NC(=O)C(CC(C)C)C(S)c1ccccc1 (single isomer, unassigned) [Example 2 Isomer A1, N-[2-(1-S-Mercaptobenzyl)-4-methylpentanoyl]-O-methyl-L-tyrosine-N-methylamide]
1.71 µM	CNC(=O)[C@H](Cc1ccc(OC)cc1)NC(=O)C(CC(C)C)C(S)c1ccccc1 (single isomer, unassigned) [Example 2 Isomer A2, N-[2-(1-S-Mercaptobenzyl)-4-methylpentanoyl]-O-methyl-L-tyrosine-N-methylamide]
3.9 µM	CNC(=O)[C@H](Cc1ccc(OC)cc1)NC(=O)C(CC(C)C)C(S)c1ccccc1 (single isomer, unassigned) [Example 2 Isomer B1, N-[2-(1-S-Mercaptobenzyl)-4-methylpentanoyl]-O-methyl-L-tyrosine-N-methylamide]
12 µM	CNC(=O)[C@H](Cc1ccc(OC)cc1)NC(=O)C(CC(C)C)C(S)c1ccccc1 (single isomer, unassigned) [Example 2 Isomer B2, N-[2-(1-S-Mercaptobenzyl)-4-methylpentanoyl]-O-methyl-L-tyrosine-N-methylamide]
2 µM	CNC(=O)[C@H](Cc1ccc(OC)cc1)NC(=O)C(CC(C)C)C(S)C(C)C (single isomer, unassigned) [Example 3 Isomer A, N-(2-(1-Mercapto-2-methylpropyl)-4-methylpentanoyl)-O-methyl-L-tyrosine N-Methyl amide]
5 µM	CNC(=O)[C@H](Cc1ccc(OC)cc1)NC(=O)C(CC(C)C)C(S)C(C)C (single isomer, unassigned) [Example 3 Isomer B, N-(2-(1-Mercapto-2-methylpropyl)-4-methylpentanoyl)-O-methyl-L-tyrosine N-Methyl amide]
5 µM	CCCCCCC(C(=O)N[C@@H](Cc1ccc(OC)cc1)C(=O)NC)C(C)S (single isomer, unassigned) [Example 4 Isomer A, N-[2-(1-mercaptoethyl)octanoyl]-O-methyl-L-tyrosine N-methylamide]
140 µM	CCCCCCC(C(=O)N[C@@H](Cc1ccc(OC)cc1)C(=O)NC)C(C)S (single isomer, unassigned) [Example 4 Isomer B, N-[2-(1-mercaptoethyl)octanoyl]-O-methyl-L-tyrosine N-methylamide]
0.2 µM	CCCCC(C(=O)N[C@@H](Cc1ccc(OC)cc1)C(=O)NC)C(C)S (single isomer, unassigned) [Example 5 Isomer A, N-[2-(1-Mercaptoethyl)hexanoyl]-O-methyl-L-tyrosine N-methyl amide]
1 µM	CCCCC(C(=O)N[C@@H](Cc1ccc(OC)cc1)C(=O)NC)C(C)S (single isomer, unassigned) [Example 5 Isomer B, N-[2-(1-Mercaptoethyl)hexanoyl]-O-methyl-L-tyrosine N-methyl amide]
0.45 µM	CNC(=O)[C@@H](NC(=O)C(CC(C)C)C(C)S)[C@@H](C)OCc1ccccc1 (single isomer, unassigned) [Example 6 Isomer A, N-[2-(1-Mercaptoethyl)-4-methylpentanoyl]-O-benzyl-L-threonine N-Methylamide]
4.9 µM	CNC(=O)[C@@H](NC(=O)C(CC(C)C)C(C)S)[C@@H](C)OCc1ccccc1 (single isomer, unassigned) [Example 6 Isomer B, N-[2-(1-Mercaptoethyl)-4-methylpentanoyl]-O-benzyl-L-threonine N-Methylamide]
4.9 µM	CCCCNC(=O)[C@H](C)NC(=O)C(CC(C)C)C(C)S (single isomer, unassigned) [Example 7 Isomer A, N-[2-(1-S-Mercaptoethyl)-4-methyl-pentanoyl]-L-alanine N-butylamide]
2 µM	CCCCNC(=O)[C@H](C)NC(=O)C(CC(C)C)C(C)S (single isomer, unassigned) [Example 7 Isomer B, N-[2-(1-S-Mercaptoethyl)-4-methyl-pentanoyl]-L-alanine N-butylamide]
1.2 µM	CCCCNC(=O)[C@H](C)NC(=O)C(CC(C)C)C(C)S (single isomer, unassigned) [Example 7 Isomer C, N-[2-(1-S-Mercaptoethyl)-4-methyl-pentanoyl]-L-alanine N-butylamide]

Same assay, conditions: Table 3; all compounds S stereochemistry at c; 37° C., 16 hours, pH 7.6; read-out: IC50 against human rheumatoid sinovial collagenase

IC50	Structure (SMILES)
0.22 µM	CNC(=O)[C@H](Cc1ccc(OC)cc1)NC(=O)C(CC(C)C)C(C)S (single isomer, unassigned) [Example 1 Isomer B1, N-[2-(1-Mercaptoethyl)-4-methylpentanoyl]-O-methyl-L-tyrosine N-Methylamide]
0.45 µM	CNC(=O)[C@@H](NC(=O)C(CC(C)C)C(C)S)[C@@H](C)OCc1ccccc1 (single isomer, unassigned) [Example 6 Isomer A, N-[2-(1-Mercaptoethyl)-4-methylpentanoyl]-O-benzyl-L-threonine N-Methylamide]
1.2 µM	CCCCNC(=O)[C@H](C)NC(=O)C(CC(C)C)C(C)S (single isomer, unassigned) [Example 7 Isomer C, N-[2-(1-S-Mercaptoethyl)-4-methyl-pentanoyl]-L-alanine N-butylamide]
3.6 µM	CNC(=O)[C@H](Cc1ccc(OC)cc1)NC(=O)C(CS)CC(C)C (some centres unmarked) [reference compound]
37 µM	CCCCNC(=O)[C@H](C)NC(=O)C(CS)CC(C)C (some centres unmarked) [reference compound]
4.8 µM	CNC(=O)[C@@H](NC(=O)C(CS)CC(C)C)C(C)OCc1ccccc1 (some centres unmarked) [reference compound]

Same assay, conditions: Table 3 footnote 4; individual determinations; read-out: IC50, individual results (footnote 4: mean of two results)

IC50	Structure (SMILES)
25 µM and 44 µM	CCCCNC(=O)[C@H](C)NC(=O)C(CS)CC(C)C (some centres unmarked) [reference compound]
